In patent US20050214894A1, “High throughput assay” (priority 2004, published 2005):

Columns and labels:
FIH = target: T1, FIH (Homo sapiens, UniProt Q9NWT6); assay: FIH activity assay: 2-OG consumption detected by OPD derivatisation and fluorescence; format: biochemical; conditions: for effect on 2-OG consumption by FIH: inhibitor 1 mM, in the presence of prime substrate and 2-OG, FIG. 7
T1 construct: FIH and GST-tagged HIF-1α 786-826 were prepared as described previously; made in house
Protocol: The assay of FIH activity was carried out by mixing 1 mM DTT, 0.6 mg/ml catalase, 2-OG, substrate and 50 mM Tris/HCl pH 7.5 to a final volume of 88 μl warming to 37° C. for 5 minutes in a water bath. Simultaneously, the enzyme and iron (prepared as 500 mM stock in 20 mM HCl, and diluted with water) were mixed at room temperature for 3 minutes. Reaction was initiated by addition of 12 μl of enzyme/iron mix to the substrate/cofactor mix. The reaction was stopped by addition of 200 μl 0.5M HCl; derivatisation was then achieved by the addition of 100 μl 10 mg/ml OPD in 0.5M HCl, and heating for 10 minutes at 95° C. in a heating block.

PHD2 = target: T2, PHD2 (Homo sapiens, UniProt Q9GZT9); assay: PHD2 activity assay: 2-OG consumption detected by OPD derivatisation and fluorescence; format: biochemical; conditions: inhibitor 1 mM; Tris and HEPES buffers; FIG. 9
T2 construct: a form of the enzyme that has had the first 180 amino acids (including those containing a MYND finger motif) removed; made in house; host or cells: Escherichia coli BL21(DE3)
T2 sequence (Q9GZT9 with tags, fused parts or gaps): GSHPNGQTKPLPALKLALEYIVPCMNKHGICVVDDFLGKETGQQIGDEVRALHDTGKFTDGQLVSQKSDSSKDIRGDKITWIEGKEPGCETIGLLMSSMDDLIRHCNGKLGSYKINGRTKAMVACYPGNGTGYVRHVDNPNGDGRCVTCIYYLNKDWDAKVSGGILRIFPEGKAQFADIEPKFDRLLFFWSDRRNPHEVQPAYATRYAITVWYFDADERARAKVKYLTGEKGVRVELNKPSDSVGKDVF
Source text: The PHD2 used was a form of the enzyme that has had the first 180 amino acids (including those containing a MYND finger motif) removed. Thus the enzyme, after removal of the affinity tag, has a N-terminus of […]; we have found this form of PHD2 to be preferred in the in vitro assays. The enzyme was expressed from the pET28a(+) vector (Novagen), with the gene cloned between NheI and BamHI restriction sites. Growth and induction were using standard techniques, in that the pET28a(+) vector was transformed into BL21(DE3) Escherichia coli cells, and grown in 2TY medium at 37° C. until the absorbance of the solution of 600 nm was 0.8. IPTG was added to a final concentration of 0.5 mM and growth was continued for three hours. Affinity purification using Novagen His-Bind resin was as per the manufacturers instructions.
The assay was carried out as for the FIH, but the buffer used was 50 mM HEPES pH7.0.

T1 sequence (Q9NWT6 whole entry): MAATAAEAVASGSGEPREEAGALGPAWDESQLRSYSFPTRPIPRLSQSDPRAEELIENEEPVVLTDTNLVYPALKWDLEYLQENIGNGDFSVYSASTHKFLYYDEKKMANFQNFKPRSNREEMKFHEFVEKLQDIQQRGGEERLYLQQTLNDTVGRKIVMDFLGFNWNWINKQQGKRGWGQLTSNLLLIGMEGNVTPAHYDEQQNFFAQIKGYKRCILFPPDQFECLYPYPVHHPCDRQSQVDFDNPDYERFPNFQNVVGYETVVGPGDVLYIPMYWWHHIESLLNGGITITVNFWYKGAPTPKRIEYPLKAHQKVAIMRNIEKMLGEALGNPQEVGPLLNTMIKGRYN

effect on 2-OG consumption by FIH (FIH) | inhibition of PHD2 (PHD2) | IC50 (FIH) [µM] | Structure (SMILES)
eliminated the 2-OG consumption by FIH | – | – | O=C(O)c1c[nH]c2c(ccc3cccnc32)c1=O [FG0041]
– | little, if any, inhibition of PHD2 | – | O=C(O)C(=O)N[C@H](Cc1ccccc1)C(=O)O [NOFD, N-oxalyl-D-phenylalanine]
eliminated the 2-OG consumption by FIH | – | 40 | O=C(O)CNC(=O)C(=O)O [N-oxalylglycine]
